Test results as given in patent publication US20250059174A1, “Pharmaceutical Compounds and Compositions as C-Kit Kinase Inhibitors” (Enanta Pharmaceuticals, Inc., priority 2023, published 2025).

Experiments:
M-07e cells = assay: M-07e cellular assay (SCF-mediated cell proliferation); format: cell-based; conditions: Homo sapiens, 72 hours, CellTiter Glo
Protocol: M-07e cells (Creative Bioarray, CSC-C0249) which endogenously express human c-KIT were used to evaluate the effect of compounds on stem cell factor (SCF)-mediated cell proliferation. M-07e cells were cultured in growth media (RPMI+10% FBS+1% penicillin/streptomycin+10 ng/mL GM-CSF) at 5E5-1.5E6 cells/mL, replenishing media every 3-4 days. 1.5E4 cells were seeded per well in 384 well tissue culture treated plates in 20 μL assay media (RPMI+[…]+1% penicillin/streptomycin) without growth factor stimulation and incubated at 37° C. in a CO2 humidity-controlled incubator. Twenty-four hours later, three-fold serially diluted test compounds in media containing SCF (at the previously determined EC90) were added to the plated M-07e cells and incubated for an additional 72 hours. Cell viability was determined by adding 25 μL CellTiter Glo (Promega) to the cells and the luminescence was measured using a Perkin Elmer Envision plate reader. The EC50 was determined using GraphPad Prism. Percent cell growth was determined after normalizing the curve to the mean RLU high control (no compound control wells) at 100% and the mean RLU low control (no SCF control wells) at 0%.

[1] = target: Recombinant human c-KIT kinase (Homo sapiens (Human), UniProt P10721); assay: c-KIT kinase chemiluminescence assay (ADP-Glo); format: biochemical; conditions: ATP 50 μM
Chain of Recombinant human c-KIT kinase (P10721 26-976): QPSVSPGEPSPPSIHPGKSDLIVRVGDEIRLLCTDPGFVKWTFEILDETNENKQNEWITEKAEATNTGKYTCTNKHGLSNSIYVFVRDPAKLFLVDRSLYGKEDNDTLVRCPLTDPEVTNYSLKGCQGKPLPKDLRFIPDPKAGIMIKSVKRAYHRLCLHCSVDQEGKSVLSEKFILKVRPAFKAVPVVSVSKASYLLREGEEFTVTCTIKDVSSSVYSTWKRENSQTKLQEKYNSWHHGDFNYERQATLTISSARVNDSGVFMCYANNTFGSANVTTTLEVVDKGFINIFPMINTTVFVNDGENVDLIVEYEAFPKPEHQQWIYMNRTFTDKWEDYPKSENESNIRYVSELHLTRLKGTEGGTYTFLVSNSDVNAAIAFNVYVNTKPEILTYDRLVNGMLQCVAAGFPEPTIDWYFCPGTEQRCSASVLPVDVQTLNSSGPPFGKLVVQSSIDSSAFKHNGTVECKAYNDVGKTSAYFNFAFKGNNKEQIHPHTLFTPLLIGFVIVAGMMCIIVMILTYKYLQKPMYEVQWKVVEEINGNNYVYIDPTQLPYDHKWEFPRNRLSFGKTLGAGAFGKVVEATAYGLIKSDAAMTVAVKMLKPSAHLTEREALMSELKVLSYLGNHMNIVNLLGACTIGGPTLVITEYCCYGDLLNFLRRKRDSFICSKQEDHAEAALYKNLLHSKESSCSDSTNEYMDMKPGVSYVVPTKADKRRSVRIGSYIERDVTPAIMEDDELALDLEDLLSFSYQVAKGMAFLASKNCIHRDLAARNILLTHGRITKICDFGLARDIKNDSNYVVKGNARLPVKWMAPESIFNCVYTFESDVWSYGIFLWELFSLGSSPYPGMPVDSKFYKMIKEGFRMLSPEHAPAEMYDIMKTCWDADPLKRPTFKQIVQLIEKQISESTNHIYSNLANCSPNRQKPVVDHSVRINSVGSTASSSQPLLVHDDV
Protocol: The c-KIT Kinase Enzyme System (V4498) and ADP-Glo™ Kinase Assay kit (V6930) were purchased from Promega (Madison, WI). DMSO (D2650) was purchased from Sigma-Aldrich (Burlington, MA).
Kinase Reaction: The kinase assay was based on the recommended protocol by c-KIT Kinase Enzyme System from Promega. Recombinant human c-KIT kinase in 3 μL of assay buffer (40 mM Tris pH 7.5, 20 mM MgCl2, 0.1 mg/mL BSA and 50 μM DTT) was added to the test or high control wells and 3 μL of assay buffer was added to the low control wells. The microplate was centrifuged at 800 rotations per minute (rpm) for 60 s and incubated at room temperature (RT) for 30 min. Next, 2 μL of buffered ATP and polyEY substrate solution was added to all wells. The microplate was centrifuged at 800 rpm for 60 s and incubated at RT for 2 h.
ADP detection with ADP-Glo™ Kinase Assay: After the kinase reaction incubation, 5 μL of ADP-Glo™ reagent was added to all wells. The microplate was centrifuged at 800 rpm for 60 s and incubated at RT for 40 min. Ten microliter (10 μL) of Kinase Detection Reagent (Luciferin-Luciferase system) was then added to all wells. The microplate was centrifuged at 800 rpm for 60 s and incubated at RT for 60 min. Kinase activity was measured as increase in luminescence at RT in an Envision plate reader equipped with 560 nm filters and operating in endpoint mode. Data Analysis: Endpoint chemiluminescence from high and low control wells were used to calculate normalized c-KIT activity at various concentrations of test compounds. The normalized activities were fitted to inhibitor-versus-normalized response fit in GraphPad Prism 7 to determine half-maximal inhibitory concentration (IC50) and hill coefficient values (H).
Where I is the inhibitor concentration and H is the Hill coefficient.

| SMILES | EC50 (M-07e cells) [nM] | IC50 [1] [nM] |
| --- | --- | --- |
| Cc1ncc(-c2noc(C3CN(CC(F)F)C3)n2)cc1NC(=O)c1cnn2ccc(N3CC4(C3)CC(O)(C(F)F)C4)cc12 [Example 281-130] | 100 to 1000 | 100 to 1000 |
| Cc1sc(-c2noc([C@H]3C[C@@H]3F)n2)cc1NC(=O)c1cnn2ccc(N3CC4(COC4)C3)cc12 [Example 281-117] | 100 to 1000 | 100 to 1000 |
| Cc1ncc(-c2noc([C@H]3C[C@@H](OC(F)F)C3)n2)cc1NC(=O)c1cnn2ccc(N3CC4(COC4)C3)cc12 [Example 269] | < 100 | 100 to 1000 |
| Cc1ccc(-c2noc([C@H]3C[C@@H]3F)n2)cc1NC(=O)c1cnn2cc(-c3cn(CC4(C)COC4)nn3)ccc12 [Example 119] | < 100 | < 100 |
| Cc1ccc(-c2cnc(C3CC3)nc2)cc1NC(=O)c1cnn2ccc(N3CC4(COC4)C3)cc12 [Example 340] | < 100 | < 100 |
| Cc1ccc(-c2noc([C@H]3C[C@@H]3F)n2)cc1NC(=O)c1cnn2ccc(N3C4CCC3CC(O)C4)cc12 (stereo partly drawn) [Example 204] | < 100 | < 100 |
| Cc1ccc(-c2noc([C@H]3C[C@@H]3F)n2)cc1NC(=O)c1cnn2ccc(N3C4COCC3C4)cc12 [Example 189] | < 100 | < 100 |
| Cc1ccc(-c2ccc(C3CC3)nn2)cc1NC(=O)c1cnn2ccc(N3CC4(COC4)C3)cc12 [Example 343] | < 100 | < 100 |
| Cc1nc2cc(-c3ncc(C(=O)Nc4cc(-c5noc([C@H]6C[C@@H]6F)n5)ccc4C)o3)ccc2[nH]1 [Example 308-40] | < 100 | < 100 |
| Cc1ccc(-c2noc([C@H]3C[C@@H]3C(F)F)n2)cc1NC(=O)c1cnn2ccc(N3CC4(COC4)C3)cc12 [Example 278] | < 100 | < 100 |
| Cc1ccc(-c2noc([C@H]3C[C@@H](OC(F)(F)F)C3)n2)cc1NC(=O)c1cnn2ccc(N3CC4CC(C3)O4)cc12 [Example 256] | < 100 | < 100 |
| CC(=O)N1CCC(c2nc(-c3cnc(C)c(NC(=O)c4cnn5ccc(N6CC7(COC7)C6)cc45)c3)no2)CC1 [Example 281-75] | > 1000 | > 1000 |
| Cc1ccc(-c2noc([C@H]3C[C@@H]3F)n2)cc1NC(=O)c1cnc(-c2ccc3[nH]c(C#N)cc3c2)o1 [Example 308-1] | 100 to 1000 | 100 to 1000 |
| Cc1ccc(-c2noc([C@H]3C[C@@H]3F)n2)cc1NC(=O)c1cnn2ccc(N3CCC4(COC4)C3)cc12 [Example 173] | < 100 | < 100 |
| Cc1ccc(-c2noc([C@H]3C[C@@H]3F)n2)cc1NC(=O)c1cnn2ccc(N3CCN(C(=O)OC(C)(C)C)C[C@@H]3C)cc12 [Example 191] | < 100 | < 100 |
| Cc1ccc(-c2noc([C@H]3C[C@@H]3F)n2)cc1NC(=O)c1cnc(-c2ccc3c(c2)NC(=O)CO3)o1 [Example 308-52] | 100 to 1000 | 100 to 1000 |
| Cc1ncc(-c2noc(C3CN(C(=O)C4CC4)C3)n2)cc1NC(=O)c1cnn2ccc(N3CC4(COC4)C3)cc12 [Example 281-87] | > 1000 | > 1000 |
| Cc1sc(-c2noc(C3CN(C(=O)[C@H]4C[C@@H]4F)C3)n2)cc1NC(=O)c1cnn2ccc(N3CC4(C3)CC(O)(C(F)F)C4)cc12 [Example 281-127] | > 1000 | 100 to 1000 |
| Cc1ncc(-c2noc([C@H]3C[C@@H]3C(F)F)n2)cc1NC(=O)c1cnn2ccc(N3CC4(C3)CC(O)(C(F)F)C4)cc12 [Example 281-64] | < 100 | < 100 |
| Cc1ncc(-c2noc([C@H]3CN(CC(F)(F)F)[C@@H]3C)n2)cc1NC(=O)c1cnn2ccc(N3CC4(C3)CC(O)(C(F)F)C4)cc12 [Example 281-9] | 100 to 1000 | 100 to 1000 |

| SMILES | EC50 (M-07e cells) [nM] | IC50 [1] [nM] |
| --- | --- | --- |
| Cc1ccc(-c2ncc(OC(F)F)cn2)cc1NC(=O)c1cnn2ccc(-c3c(C)nc(N)nc3C)cc12 [Example 366] | 100 to 1000 | > 1000 |
| Cc1ccc(-c2noc([C@H]3C[C@@H]3F)n2)cc1NC(=O)c1cnn2ccc(N3CCNC[C@@H]3C)cc12 [Example 196] | < 100 | < 100 |
| Cc1ncc(-c2noc([C@H]3C[C@@H](OC(F)(F)F)C3)n2)cc1NC(=O)c1cnn2ccc(N3CC4(C3)CC(O)(C(F)F)C4)cc12 [Example 281-45] | < 100 | < 100 |
| Cc1sc(-c2nccc(C3CC3)n2)cc1NC(=O)c1cnn2ccc(N3CC4(C3)CC(O)(C(F)F)C4)cc12 [Example 347] | 100 to 1000 | 100 to 1000 |
| CC(=O)NC1CN(c2ncc(C(=O)Nc3cc(-c4noc([C@H]5C[C@@H]5F)n4)ccc3C)s2)C1 [Example 98-2] | > 1000 | > 1000 |
| Cc1ncc(-c2noc([C@H]3C[C@@H](OC(F)(F)F)C3)n2)cc1NC(=O)c1cnn2cc(-c3cn(CCO)nn3)ccc12 [Example 132-9] | < 100 | < 100 |
| Cc1ccc(-c2noc([C@H]3C[C@@H]3F)n2)cc1NC(=O)c1cn2ncsc2n1 [Example 97] | > 1000 | > 1000 |
| Cc1ccc(-c2noc([C@H]3C[C@@H]3F)n2)cc1NC(=O)c1cnc(-c2ccc3c(c2)C2(CCNCC2)C(=O)N3)o1 [Example 308-9] | > 1000 | 100 to 1000 |
| COC(=O)N1CC(c2nc(-c3cnc(C)c(NC(=O)c4cnn5ccc(N6CC7(COC7)C6)cc45)c3)no2)C1 [Example 281-77] | 100 to 1000 | 100 to 1000 |
| Cc1ccc(-c2noc([C@H]3CC3(F)F)n2)cc1NC(=O)c1cnn2ccc(N3CC4(COC4)C3)cc12 [Example 281-7] | < 100 | 100 to 1000 |
| Cc1ccc(-c2noc([C@H]3C[C@@H]3F)n2)cc1NC(=O)c1cnn2ccc(N3CC4(CCN(CC(F)F)C4)C3)cc12 [Example 185] | < 100 | < 100 |
| Cc1ccc(-c2noc([C@H]3C[C@@H](C(F)(F)F)C3)n2)cc1NC(=O)c1cnn2ccc(N3CC4(COC4)C3)cc12 [Example 281-25] | < 100 | < 100 |
| Cc1ccc(-c2noc([C@H]3C[C@@H]3F)n2)cc1NC(=O)c1cnc(-c2ccc3cn(C)nc3c2)o1 [Example 308-31] | 100 to 1000 | 100 to 1000 |
| Cc1ccc(-c2noc([C@H]3C[C@H](OC(F)(F)F)C3)n2)cc1NC(=O)c1cnn2ccc(N3CC4(COC4)C3)cc12 [Example 245] | < 100 | < 100 |
| Cc1ccc(-c2noc([C@H]3C[C@@H]3F)n2)cc1NC(=O)c1cnc(-c2ccc3cnn(C)c3c2)o1 [Example 308-32] | 100 to 1000 | < 100 |
| Cc1cc(F)c(-c2noc([C@H]3C[C@@H]3F)n2)cc1NC(=O)c1cnc(-c2ccc3c(cnn3C(=O)OC(C)(C)C)c2)o1 [Example 308-10] | 100 to 1000 | > 1000 |
| Cc1ccc(-c2noc([C@H]3C[C@@H]3F)n2)cc1NC(=O)c1cnc(-c2ccc3[nH]c(=O)oc3c2)o1 [Example 300] | 100 to 1000 | 100 to 1000 |
| Cc1ccc(-c2noc([C@H]3C[C@@H]3F)n2)cc1NC(=O)c1cnn(C)c1 [Example 35] | > 1000 | > 1000 |
| COC(=O)N1CC(c2nc(-c3ccc(C)c(NC(=O)c4cnc(-c5ccc6c(c5)CC(=O)N6)o4)c3)no2)C1 [Example 308-58] | 100 to 1000 | < 100 |
